In paper PMC8813674 (Computational and Structural Biotechnology Journal, 2022):
Like-named read-outs stand apart in the source and are kept apart here.

Tests used:
[1] = system: porcine epidemic diarrhea virus (PEDV); experiment: microbe, parasite or virus in culture; conditions: 15 h, read-out: EC50 ± SD
[2] = system: porcine epidemic diarrhea virus (PEDV); conditions: for SI (=CC50/EC50): CC50 in eGFP-Vero cells / EC50 against mCherry-PEDV

CCC(CC)COC(=O)[C@H](C)N[P@](=O)(OC[C@H]1O[C@@](C#N)(c2ccc3c(N)ncnn23)[C@H](O)[C@@H]1O)Oc1ccccc1 [Remdesivir]
EC50 [1]: 2710 ± 700 nM | Antiviral effect (mCherry expression and syncytia formation) ([2]; 50 µM, 15 h post-infection): completely inhibited | SI (=CC50/EC50) [2]: >37 | SI (=CC50/EC50) ([2]; listed as remdesivir): > 37
